Data on eight molecules can be found in ChEMBL document CHEMBL1201862, “PubChem BioAssay data set” (2004).

Holding throughout (assay type): functional
Test [1] addresses T1, Orexin receptor type 2 (Homo sapiens, UniProt O43614).
T1 sequence (O43614 whole entry): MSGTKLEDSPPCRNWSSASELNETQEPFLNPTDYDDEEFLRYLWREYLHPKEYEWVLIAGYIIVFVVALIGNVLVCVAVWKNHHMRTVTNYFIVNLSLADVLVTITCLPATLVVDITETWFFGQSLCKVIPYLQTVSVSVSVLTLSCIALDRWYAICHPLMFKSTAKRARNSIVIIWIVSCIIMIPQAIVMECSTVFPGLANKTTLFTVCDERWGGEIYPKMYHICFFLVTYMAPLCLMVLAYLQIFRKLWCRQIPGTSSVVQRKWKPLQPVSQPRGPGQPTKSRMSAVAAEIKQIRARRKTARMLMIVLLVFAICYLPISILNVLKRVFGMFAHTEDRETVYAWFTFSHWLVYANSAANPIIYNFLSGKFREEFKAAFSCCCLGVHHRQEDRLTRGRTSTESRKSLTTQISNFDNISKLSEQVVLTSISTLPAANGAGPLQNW
Description: Counterscreen assay for antagonists of the orexin 1 receptor (OX1R; HCRTR1): Homogeneous Time Resolved Fluorescence (HTRF)-based cell-based dose response assay for antagonists of the orexin 2 receptor (OX2R; HCRTR2), run by assay provider. For orientation: The purpose of a counterscreen is to sort out artefacts and off-target activity.

Test [2] can be described thus: Counterscreen for antagonists of the orexin 1 receptor (OX1R; HCRTR1): Fluorescence-based cell-based high throughput dose response assay to identify antagonists of the parental CHO cell line. [Related pubchem assays (depositor defined):AID434989, AID435008, AID463079, AID485270, AID492963, AID492964, AID492965, AID493232, AID504699, AID504701].
In test [3] the target is T1, Orexin receptor type 2. Description: Counterscreen assay for antagonists of the orexin 1 receptor (OX1R; HCRTR1): Fluorescence-based cell-based dose response assay for antagonists of the orexin 2 receptor (OX2R; HCRTR2), run by assay provider.
For test [4], the target named is T2, Orexin/Hypocretin receptor type 1 (Homo sapiens, UniProt O43613).
T2 sequence (O43613 whole entry): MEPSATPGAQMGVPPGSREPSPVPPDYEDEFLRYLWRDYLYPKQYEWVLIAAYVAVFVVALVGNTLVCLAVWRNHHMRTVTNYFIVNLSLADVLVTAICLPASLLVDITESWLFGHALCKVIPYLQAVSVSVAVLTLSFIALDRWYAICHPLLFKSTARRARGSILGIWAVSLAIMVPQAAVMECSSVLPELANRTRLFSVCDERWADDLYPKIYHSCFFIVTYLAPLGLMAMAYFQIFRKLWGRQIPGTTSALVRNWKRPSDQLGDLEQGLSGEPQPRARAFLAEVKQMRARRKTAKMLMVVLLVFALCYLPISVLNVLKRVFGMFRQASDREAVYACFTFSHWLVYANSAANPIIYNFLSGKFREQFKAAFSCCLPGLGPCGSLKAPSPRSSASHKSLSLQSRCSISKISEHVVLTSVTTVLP
Description: Fluorescence-based cell-based high throughput dose response assay for antagonists of the orexin 1 receptor (OX1R; HCRTR1). [Related pubchem assays (depositor defined):AID434989, AID435008, AID463079, AID485270, AID492963, AID492964, AID492965, AID493232, AID504717, AID504718].

Test [5] addresses T2, Orexin/Hypocretin receptor type 1. The test is described as follows: Homogeneous Time Resolved Fluorescence (HTRF)-based cell-based high throughput dose response assay for antagonists of the orexin 1 receptor (OX1R; HCRTR1). [Related pubchem assays (depositor defined):AID434989, AID435008, AID463079, AID485270, AID492963, AID492964, AID492965, AID493232, AID504717, AID504718]. In general terms: In TR-FRET formats the signal depends on donor and acceptor labels being close together.

Another test deals with CHO-K1. The test is described as follows: Counterscreen for antagonists of the orexin 1 receptor (OX1R; HCRTR1): Homogeneous time resolved fluorescence (HTRF)-based cell-based dose response assay to identify antagonists of the parental CHO-K1 cell line. [Related pubchem assays (depositor defined):AID434989, AID435008, AID463079, AID485270, AID492963, AID492964, AID492965, AID493232, AID504699, AID504701]. As to conditions: Cricetulus griseus.

The target in a further test is Phospholipase D2 (Homo sapiens, UniProt O14939). Description: PLD2 inhibitor potency in cells, dose response (AID 602147).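 Also: cellular assay in HEK293 cells overexpressing GFP-tagged PLD2.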
For a further test, the target named is T3, Phospholipase D1 (Homo sapiens, UniProt Q13393).
T3 sequence (Q13393 whole entry): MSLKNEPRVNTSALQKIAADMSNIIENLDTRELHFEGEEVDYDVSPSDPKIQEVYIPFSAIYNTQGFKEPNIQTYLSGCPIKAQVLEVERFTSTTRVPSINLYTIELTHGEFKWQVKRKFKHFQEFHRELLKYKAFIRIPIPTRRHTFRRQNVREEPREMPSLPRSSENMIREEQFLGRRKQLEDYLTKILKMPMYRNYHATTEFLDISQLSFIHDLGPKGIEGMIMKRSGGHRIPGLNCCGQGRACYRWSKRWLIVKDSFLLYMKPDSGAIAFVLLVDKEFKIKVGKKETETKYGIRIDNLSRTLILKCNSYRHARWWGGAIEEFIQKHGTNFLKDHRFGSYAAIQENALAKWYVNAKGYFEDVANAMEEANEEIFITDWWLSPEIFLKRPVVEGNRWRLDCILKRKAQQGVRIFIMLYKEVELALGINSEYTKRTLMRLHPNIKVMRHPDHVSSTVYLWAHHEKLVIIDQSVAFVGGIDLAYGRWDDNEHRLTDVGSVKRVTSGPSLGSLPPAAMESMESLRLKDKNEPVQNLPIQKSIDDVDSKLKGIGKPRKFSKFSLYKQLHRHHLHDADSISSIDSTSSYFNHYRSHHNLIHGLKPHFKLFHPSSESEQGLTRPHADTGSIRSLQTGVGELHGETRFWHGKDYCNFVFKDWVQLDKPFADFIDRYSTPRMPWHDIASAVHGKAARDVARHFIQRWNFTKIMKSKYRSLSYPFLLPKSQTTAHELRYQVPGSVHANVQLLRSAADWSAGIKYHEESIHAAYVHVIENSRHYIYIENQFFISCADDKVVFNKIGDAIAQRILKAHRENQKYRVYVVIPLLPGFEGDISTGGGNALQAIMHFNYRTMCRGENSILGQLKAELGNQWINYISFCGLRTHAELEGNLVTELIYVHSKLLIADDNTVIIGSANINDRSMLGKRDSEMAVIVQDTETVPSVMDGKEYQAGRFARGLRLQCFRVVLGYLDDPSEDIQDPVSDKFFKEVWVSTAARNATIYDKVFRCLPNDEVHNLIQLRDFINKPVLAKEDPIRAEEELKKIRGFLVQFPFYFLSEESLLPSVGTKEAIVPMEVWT
The test is described as follows: PLD1 inhibitor potency in cells, dose response (AID 602151).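 Also: cellular PLD1 assay in Calu-1 cells stimulated with PMA.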

A further test deals with T4, Hexokinase HKDC1 (Homo sapiens, UniProt Q2TB90).
T4 sequence (Q2TB90 whole entry): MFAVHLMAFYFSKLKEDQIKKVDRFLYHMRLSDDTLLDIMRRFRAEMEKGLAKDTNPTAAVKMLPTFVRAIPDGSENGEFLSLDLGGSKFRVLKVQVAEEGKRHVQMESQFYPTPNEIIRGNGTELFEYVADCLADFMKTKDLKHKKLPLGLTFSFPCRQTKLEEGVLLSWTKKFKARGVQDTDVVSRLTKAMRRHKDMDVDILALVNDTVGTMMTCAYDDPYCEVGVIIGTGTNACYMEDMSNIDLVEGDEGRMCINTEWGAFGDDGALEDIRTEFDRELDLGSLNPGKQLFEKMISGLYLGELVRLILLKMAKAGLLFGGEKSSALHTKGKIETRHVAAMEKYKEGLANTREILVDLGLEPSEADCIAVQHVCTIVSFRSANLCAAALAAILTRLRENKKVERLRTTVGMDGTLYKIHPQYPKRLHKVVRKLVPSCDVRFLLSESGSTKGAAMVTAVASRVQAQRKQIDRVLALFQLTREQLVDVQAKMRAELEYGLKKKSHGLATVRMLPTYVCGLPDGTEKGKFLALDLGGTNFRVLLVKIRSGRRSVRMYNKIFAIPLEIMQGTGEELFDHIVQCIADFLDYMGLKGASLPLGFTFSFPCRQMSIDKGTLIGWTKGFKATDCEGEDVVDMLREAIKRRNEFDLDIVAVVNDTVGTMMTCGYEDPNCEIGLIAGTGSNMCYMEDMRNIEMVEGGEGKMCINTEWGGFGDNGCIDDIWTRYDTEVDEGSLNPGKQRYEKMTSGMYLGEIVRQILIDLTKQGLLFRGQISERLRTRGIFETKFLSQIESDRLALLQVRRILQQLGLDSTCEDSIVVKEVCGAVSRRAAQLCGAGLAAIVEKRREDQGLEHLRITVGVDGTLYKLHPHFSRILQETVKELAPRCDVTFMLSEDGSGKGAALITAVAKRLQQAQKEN
The test is described as follows: SAR analysis of small molecule inhibitors of hexokinase domain containing I (HKDC1). [Related pubchem assays (depositor defined):AID493160, AID493190].

The next test addresses Hexokinase-1 (Homo sapiens, UniProt P19367). Description: SAR analysis of small molecule inhibitors of hexokinase domain containing I (HKDC1) in the hexokinase 1 selectivity assay. [Related pubchem assays (depositor defined):AID493160, AID493190].
In test [6] the target is Beta-2 adrenergic receptor (Homo sapiens, UniProt P07550). The test is described as follows: beta2AR agonists driving receptor internalization, dose response, cell-based, FAP fluorogen, flow cytometry, cherry pick 1 (AID 588763).
Test [7] concerns the target T5, Apoptotic protease-activating factor 1 (Homo sapiens, UniProt O14727).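 Also: caspase-3 cleavage of fluorogenic Rh110 DEVD substrate downstream of apoptosome activation.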
T5 sequence (O14727 whole entry): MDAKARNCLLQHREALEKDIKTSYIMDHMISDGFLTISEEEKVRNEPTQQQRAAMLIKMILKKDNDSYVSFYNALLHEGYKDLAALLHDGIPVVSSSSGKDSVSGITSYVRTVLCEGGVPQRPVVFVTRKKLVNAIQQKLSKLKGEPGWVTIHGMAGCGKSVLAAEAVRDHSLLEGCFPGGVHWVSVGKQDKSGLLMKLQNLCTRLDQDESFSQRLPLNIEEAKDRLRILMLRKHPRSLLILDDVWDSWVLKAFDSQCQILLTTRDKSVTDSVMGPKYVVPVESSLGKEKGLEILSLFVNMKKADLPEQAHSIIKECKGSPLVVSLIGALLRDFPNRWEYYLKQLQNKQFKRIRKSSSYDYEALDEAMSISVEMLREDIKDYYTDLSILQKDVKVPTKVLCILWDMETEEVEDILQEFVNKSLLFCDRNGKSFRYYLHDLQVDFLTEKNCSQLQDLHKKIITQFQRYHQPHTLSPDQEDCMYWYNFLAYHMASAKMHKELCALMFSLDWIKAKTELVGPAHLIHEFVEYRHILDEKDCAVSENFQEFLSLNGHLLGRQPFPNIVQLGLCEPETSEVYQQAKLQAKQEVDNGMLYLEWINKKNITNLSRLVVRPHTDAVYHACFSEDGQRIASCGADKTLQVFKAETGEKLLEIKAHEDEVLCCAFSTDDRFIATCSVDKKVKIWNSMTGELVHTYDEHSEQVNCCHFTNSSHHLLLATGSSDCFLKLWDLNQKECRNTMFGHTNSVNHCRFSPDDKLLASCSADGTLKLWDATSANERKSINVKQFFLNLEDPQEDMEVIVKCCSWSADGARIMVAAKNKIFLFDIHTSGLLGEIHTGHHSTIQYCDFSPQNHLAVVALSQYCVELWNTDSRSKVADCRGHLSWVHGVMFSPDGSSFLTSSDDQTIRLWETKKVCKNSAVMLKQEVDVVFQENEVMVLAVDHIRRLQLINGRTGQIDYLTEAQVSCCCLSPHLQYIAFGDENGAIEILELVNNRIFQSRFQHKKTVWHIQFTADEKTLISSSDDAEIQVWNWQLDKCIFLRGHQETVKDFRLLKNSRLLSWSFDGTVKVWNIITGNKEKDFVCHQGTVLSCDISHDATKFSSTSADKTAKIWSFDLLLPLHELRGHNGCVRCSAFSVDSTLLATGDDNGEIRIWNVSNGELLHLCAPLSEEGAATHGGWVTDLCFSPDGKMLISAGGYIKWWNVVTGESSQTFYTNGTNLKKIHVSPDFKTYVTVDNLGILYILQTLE
The test is described as follows: SAR analysis of small molecule Activators of Apaf-1 in a Fluorescent assay. As to conditions: read-out: EC50_Mean.

Active and inactive are the calls of the source.

Phospholipase D2, sequence (O14939 whole entry): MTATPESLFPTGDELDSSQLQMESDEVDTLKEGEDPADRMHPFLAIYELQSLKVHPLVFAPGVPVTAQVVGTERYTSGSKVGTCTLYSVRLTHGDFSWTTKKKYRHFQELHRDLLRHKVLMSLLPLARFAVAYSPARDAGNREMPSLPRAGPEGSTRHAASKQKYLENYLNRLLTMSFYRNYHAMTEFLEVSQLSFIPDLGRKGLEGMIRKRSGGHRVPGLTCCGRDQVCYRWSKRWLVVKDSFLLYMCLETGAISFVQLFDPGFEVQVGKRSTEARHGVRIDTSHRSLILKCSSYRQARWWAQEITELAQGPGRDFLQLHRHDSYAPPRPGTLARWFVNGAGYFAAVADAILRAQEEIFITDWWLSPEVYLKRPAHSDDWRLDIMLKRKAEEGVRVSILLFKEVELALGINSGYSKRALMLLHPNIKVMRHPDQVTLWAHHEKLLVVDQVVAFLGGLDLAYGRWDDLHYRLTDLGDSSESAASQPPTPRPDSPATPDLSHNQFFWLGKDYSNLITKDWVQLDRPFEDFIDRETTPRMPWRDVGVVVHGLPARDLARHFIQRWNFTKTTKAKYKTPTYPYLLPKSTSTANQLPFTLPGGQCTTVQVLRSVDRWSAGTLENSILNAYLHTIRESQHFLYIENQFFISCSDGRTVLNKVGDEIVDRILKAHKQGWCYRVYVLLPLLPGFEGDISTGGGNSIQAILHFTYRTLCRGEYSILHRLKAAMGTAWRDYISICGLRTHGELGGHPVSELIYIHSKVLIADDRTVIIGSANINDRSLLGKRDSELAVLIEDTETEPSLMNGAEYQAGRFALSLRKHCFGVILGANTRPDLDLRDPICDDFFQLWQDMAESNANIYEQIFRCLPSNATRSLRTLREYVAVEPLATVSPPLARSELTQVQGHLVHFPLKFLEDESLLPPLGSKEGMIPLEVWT
Hexokinase-1, sequence (P19367 whole entry, the tested form may be a part): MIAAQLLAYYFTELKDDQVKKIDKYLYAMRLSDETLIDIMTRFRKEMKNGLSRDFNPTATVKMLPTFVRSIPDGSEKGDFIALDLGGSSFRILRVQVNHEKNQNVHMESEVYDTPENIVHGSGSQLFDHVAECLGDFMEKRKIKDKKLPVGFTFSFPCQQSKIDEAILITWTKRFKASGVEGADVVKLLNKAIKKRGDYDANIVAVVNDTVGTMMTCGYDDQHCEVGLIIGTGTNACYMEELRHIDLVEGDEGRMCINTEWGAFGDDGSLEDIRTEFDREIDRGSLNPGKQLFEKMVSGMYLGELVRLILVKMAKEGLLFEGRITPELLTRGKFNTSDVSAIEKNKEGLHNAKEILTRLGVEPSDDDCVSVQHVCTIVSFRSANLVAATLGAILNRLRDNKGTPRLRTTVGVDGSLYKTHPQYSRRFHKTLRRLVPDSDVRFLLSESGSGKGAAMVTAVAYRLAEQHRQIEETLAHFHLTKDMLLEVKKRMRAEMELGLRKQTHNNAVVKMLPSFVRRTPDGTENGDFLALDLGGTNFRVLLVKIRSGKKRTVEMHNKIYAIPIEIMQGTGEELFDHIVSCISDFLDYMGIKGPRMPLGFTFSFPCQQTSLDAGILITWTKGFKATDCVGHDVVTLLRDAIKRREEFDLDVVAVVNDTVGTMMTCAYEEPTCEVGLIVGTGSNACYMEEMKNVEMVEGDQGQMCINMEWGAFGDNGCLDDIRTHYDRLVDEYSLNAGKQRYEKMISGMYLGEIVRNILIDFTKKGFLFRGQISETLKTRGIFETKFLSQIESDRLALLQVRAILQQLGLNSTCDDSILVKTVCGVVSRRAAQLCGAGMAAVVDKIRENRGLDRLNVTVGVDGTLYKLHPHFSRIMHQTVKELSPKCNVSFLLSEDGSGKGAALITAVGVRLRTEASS
Beta-2 adrenergic receptor, sequence (P07550 whole entry): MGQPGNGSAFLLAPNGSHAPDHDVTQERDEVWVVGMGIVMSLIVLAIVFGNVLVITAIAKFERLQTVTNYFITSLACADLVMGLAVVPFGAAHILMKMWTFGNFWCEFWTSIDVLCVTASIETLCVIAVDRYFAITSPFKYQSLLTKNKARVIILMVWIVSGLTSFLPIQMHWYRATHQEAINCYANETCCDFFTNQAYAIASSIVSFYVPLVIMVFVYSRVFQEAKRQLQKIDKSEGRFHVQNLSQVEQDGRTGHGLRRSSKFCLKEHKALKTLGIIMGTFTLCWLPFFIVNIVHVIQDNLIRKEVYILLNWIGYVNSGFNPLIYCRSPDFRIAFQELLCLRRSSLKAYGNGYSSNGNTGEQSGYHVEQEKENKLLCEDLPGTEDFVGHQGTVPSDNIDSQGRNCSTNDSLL

By IC50 is commonly meant the concentration needed to halve the response being measured. With `O=C(Nc1cccc(S(=O)(=O)NCc2ccco2)c1)c1cc(-c2ccccc2)nc2ccccc12`, the IC50 on Orexin receptor type 2 [1] was > 50 µM (inactive); in test [2] it was > 49.7 µM (inactive); at Orexin receptor type 2 [3], 16.9 µM (inactive); in test [4], > 5.53 µM (active); in [5], 2.98 µM (active); in the test with CHO-K1 it was > 66.2 µM (inactive).
On to `O=C(NCCN1CCC(n2c(=O)[nH]c3ccc(F)cc32)CC1)c1cccc2c1C(=O)c1ccccc1-2`, for which the IC50 at Phospholipase D2 was 0.17 µM (active); on Phospholipase D1, 0.007 µM (active).
Take `COc1ccc(CNc2cc3n(c(=O)n2)CCc2cc(OC)c(OC)cc2-3)cc1`: the IC50 on Hexokinase HKDC1 and at Hexokinase-1 was > 80 µM (inactive) each time.
Consider `CC(=O)c1ccc(OCc2cc(C(=O)N(C)CCOc3ccc(C)cc3)no2)cc1`, for which the EC50 in [6] was 1.91 µM (active).
Turning to `O=S(=O)(Nc1cccc2ccccc12)c1ccc(Cl)cc1`, the IC50 at Hexokinase HKDC1 and on Hexokinase-1 was > 80 µM (inactive) each time.
As for `C[C@H](CN1CCC2(CC1)C(=O)NCN2c1ccccc1)NC(=O)c1cc(Br)c(Br)o1`, the IC50 is 2.3 µM (active) on Phospholipase D2 and 0.33 µM (active) on Phospholipase D1.
As for `COC(=O)c1coc(-c2ccc(F)cc2)n1`, the EC50 in test [7] is > 100 µM (inactive).
Take `O=C(c1ccc(S(=O)(=O)Nc2ccc(F)cc2)cc1)N1CCN(c2ccccn2)CC1`: the IC50 on Orexin receptor type 2 [1] was > 50 µM (inactive); in test [2], 14.7 µM (inactive); at Orexin receptor type 2 [3], 15.6 µM (inactive); in test [4], 7.1 µM (active); in test [5] it was 4.45 µM (active); in the test on CHO-K1 it was > 66.2 µM (inactive).
